Reference: the NIST ThermoML archive (doi:10.1021/acs.jced.5b00209)
± gives the expanded uncertainty stated by the source.

Conditions: 101.33 kPa, Liquid; for viscosity: Capillary tube (Ostwald / Ubbelohde) method; for mass density: Pycnometric method

C[S+](C)[O-] [dimethyl sulfoxide]
Conditions	mass density [kg/m3]	viscosity [mPa·s]
298.15 K	1096.8 ± 0.5	2.01 ± 0.08
303.15 K	1091.4 ± 0.5	1.82 ± 0.07
308.15 K	1086.1 ± 0.5	1.65 ± 0.07
313.15 K	1081.2 ± 0.5	1.54 ± 0.06
318.15 K	1075.3 ± 0.6	1.37 ± 0.06
